Earlier results on one substance are cited in US11478524B1, “Methods and compositions for modulating complex mixtures by selective deletion chromatography” (UNIVERSITY OF SOUTH FLORIDA, priority 2017, dated 2022).

Read-outs that look alike come from different tables or passages of the source.

For the substance Epigallocatechin-3-gallate [EGCG], the lifespan extension runs as follows: (under heat stress) 13%; (under oxidative stress) 178%. The effect on longevity entry (under normal conditions) is reported as “little effect”.
